Laboratory results from patent US20240317744A1, “Bicyclic Ureas As Kinase Inhibitors” (Incyte Corporation, priority 2023, published 2024).

What was measured:
[1] = target: T1, pseudo-kinase domain (JH2, amino-acids 536-812) of human V617F mutant JAK2 (Homo sapiens, UniProt O60674, F794H/V617F/W659A/W777A); assay: JAK2 LanthaScreen JH2-V617F Binding Assay; settings: JAK2 JH2-V617F 0.26 nM, 50 nM tracer, 1 hour at 25° C.; read-out: JH2 BIND V617F
T1 construct: pseudo-kinase domain (JH2, amino-acids 536-812 with 3 surface mutations W659A, W777A, F794H); His (C); purchased BPS Bioscience 79498; host or cells: baculovirus expression system
Procedure, shortened: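 IC50 values came from four-parameter dose-response fits of LanthaScreen signal, read after compounds sat 1 hour at 25° C with 0.26 nM baculovirus-expressed biotinylated protein, 50 nM fluorescent tracer and 0.25 nM streptavidin-Tb cryptate. Non-specific binding was set with 2 mM ATP.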

[2] = target: T2, catalytic domain (JH1, amino acids 826-1132) of human JAK2 (Homo sapiens, UniProt O60674); assay: JAK2 LanthaScreen JH1 Binding Assay; settings: JAK2 JH1 1.5 nM, 50 nM tracer, 2 hours at 25° C.; read-out: JH1 BIND
T2 construct: catalytic domain (JH1, amino acids 826-1132) of human JAK2; FLAG (N); biotin (biotinylated); purchased Carna Biosciences 08-445-20N; host or cells: baculovirus expression system
Experimental: Example A. JAK2 LanthaScreen JH1 Binding Assay
JAK2 JH1 binding assay utilizes catalytic domain (JH1, amino acids 826-1132) of human JAK2 expressed as N-terminal FLAG-tagged, biotinylated protein in a baculovirus expression system (Carna Biosciences, Product #08-445-20N). The assay was conducted in black 384-well polystyrene plates in a final reaction volume of 20 μL. JAK2 JH1 (1.5 nM) was incubated with compounds (100 nL serially diluted in DMSO) in the presence of 50 nM fluorescent JAK2-JH1 tracer and 0.5 nM Streptavidin-Tb cryptate (Cisbio Part #610SATLB) in assay buffer (50 mM Tris, pH=7.5, 10 mM MgCl2, 0.01% Brij-35, 0.1% BSA, 1 mM EGTA, 5% Glycerol and 5 mM DTT). Non-specific binding was accessed in the presence of 2 mM ATP. After incubation for 2 hours at 25° C., LanthaScreen signals were read on a PHERAstar FS plate reader (BMG LABTECH). Data was analyzed with IDBS XLfit and GraphPad Prism 5.0 software using a four parameter dose response curve to determine IC50 for each compound.

[3] = target: catalytic domain (JH1, amino acids 808-1132) of human JAK2 (Homo sapiens, UniProt O60674); assay: JAK2 HTRF Enzyme Activity Assay; format: biochemical; settings: ATP 30 µM, 60 minutes at 25° C.; read-out: V617F ENZ 30 UM
[4] = target: T3, pseudo-kinase domain (JH2, amino-acids 536-812) of human Wild Type JAK2 (Homo sapiens, UniProt O60674, F794H/W659A/W777A); assay: JAK2 LanthaScreen JH2-WT Binding Assay; settings: JAK2 JH2-WT 0.145 nM, 50 nM tracer, 1 hour at 25° C.; read-out: JH2 BIND WT
T3 construct: pseudo-kinase domain (JH2, amino-acids 536-812 with 3 surface mutations W659A, W777A, F794H); His (C); purchased BPS Bioscience 79463; host or cells: baculovirus expression system
Experimental: Example B. JAK2 LanthaScreen JH2-WT Binding Assay
JAK2 JH2-WT binding assay utilizes pseudo-kinase domain (JH2, amino-acids 536-812 with 3 surface mutations W659A, W777A, F794H) of human Wild Type JAK2 expressed as C-terminal His-Avi-tagged, biotinylated protein in a baculovirus expression system (BPS Bioscience, Catalog #79463). The assay was conducted in black 384-well polystyrene plates in a final reaction volume of 20 μL. JAK2 JH2-WT (0.145 nM) was incubated with compounds (100 nL serially diluted in DMSO) in the presence of 50 nM Fluorescent JAK2-JH2 Tracer (MedChem Express Catalog #HY-102055) and 0.25 nM Streptavidin-Tb cryptate (Cisbio Part #610SATLB) in assay buffer (50 mM Tris, pH=7.5, 10 mM MgCl2, 0.01% Brij-35, 0.1% BSA, 1 mM EGTA, 5% Glycerol and 5 mM DTT). Non-specific binding was accessed in the presence of 2 mM ATP. After incubation for 1 hour at 25° C., LanthaScreen signals were read on a PHERAstar FS plate reader (BMG LABTECH). Data was analyzed with IDBS XLfit and GraphPad Prism 5.0 software using a four parameter dose response curve to determine IC50 for each compound.

catalytic domain (JH1, amino acids 808-1132) of human JAK2, sequence (O60674 808-1132 limits assumed): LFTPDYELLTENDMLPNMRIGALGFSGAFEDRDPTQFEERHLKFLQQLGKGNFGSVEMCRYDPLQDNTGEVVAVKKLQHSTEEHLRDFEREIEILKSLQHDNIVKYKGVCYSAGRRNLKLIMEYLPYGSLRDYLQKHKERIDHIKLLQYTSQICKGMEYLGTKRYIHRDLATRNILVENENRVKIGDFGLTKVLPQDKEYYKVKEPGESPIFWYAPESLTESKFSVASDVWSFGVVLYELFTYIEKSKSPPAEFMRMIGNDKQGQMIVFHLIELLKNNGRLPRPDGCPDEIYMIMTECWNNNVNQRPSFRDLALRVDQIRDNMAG
T2 sequence (O60674 826-1132): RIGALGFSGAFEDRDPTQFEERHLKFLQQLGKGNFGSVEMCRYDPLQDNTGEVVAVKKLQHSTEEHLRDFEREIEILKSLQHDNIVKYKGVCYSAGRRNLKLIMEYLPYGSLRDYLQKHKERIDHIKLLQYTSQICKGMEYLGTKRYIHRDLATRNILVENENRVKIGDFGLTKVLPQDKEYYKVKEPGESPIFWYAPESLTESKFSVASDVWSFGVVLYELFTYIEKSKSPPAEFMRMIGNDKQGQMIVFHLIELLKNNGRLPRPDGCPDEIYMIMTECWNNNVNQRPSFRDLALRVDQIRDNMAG
T3 sequence (O60674 536-812 W659A/W777A/F794H): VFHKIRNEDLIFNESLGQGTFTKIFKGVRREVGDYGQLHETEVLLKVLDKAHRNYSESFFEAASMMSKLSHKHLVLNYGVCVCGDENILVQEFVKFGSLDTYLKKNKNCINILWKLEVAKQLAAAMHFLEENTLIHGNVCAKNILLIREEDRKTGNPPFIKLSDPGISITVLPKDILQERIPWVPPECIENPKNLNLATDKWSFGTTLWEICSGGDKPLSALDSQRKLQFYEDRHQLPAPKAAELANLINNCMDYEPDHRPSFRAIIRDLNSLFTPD
T1 sequence (O60674 536-812 V617F/W659A/W777A/F794H): as the sequence (O60674 536-812 W659A/W777A/F794H) above, with V82F counted along it

Compound	IC50 [1] [nM]	IC50 [2] [nM]	IC50 [3] [nM]	IC50 [4] [nM]
[2H]C([2H])([2H])n1c(=O)n([C@H]2CC[C@@](C)(NC(=O)C3CC3)CC2)c2cc(Nc3ccc4nn(C)c(-c5cnn(C(F)(F)F)c5)c4n3)ncc21 (single isomer, unassigned) [Example 91, N-((1s,4s)-1-Methyl-4-(3-(methyl-d3)-6-((2-methyl-3-(1-(trifluoromethyl)-1H-pyrazol-4-yl)-2H-pyrazolo[4,3-b]pyridin-5-yl)amino)-2-oxo-2,3-dihydro-1H-imidazo[4,5-c]pyridin-1-yl)cyclohexyl)cyclopropanecarboxamide]	≤ 10	> 1000	10 to 100	≤ 10
[2H]C([2H])([2H])n1c(=O)n([C@]2([2H])CC[C@@H](NC(=O)OC)C2)c2cc(Nc3cc(-c4cnccc4C(F)(F)F)c4nc(C)c(-c5cnn(C(F)F)c5)n4n3)ncc21 (single isomer, unassigned) [Example 97]	≤ 10	> 1000	500 to 1000	≤ 10
CCOC(=O)c1cnc(Nc2cc(Nc3cc4c(cn3)n(C)c(=O)n4[C@@H]3CC[C@@H](NC(=O)OC)C3)cc(-c3cccc(C#N)c3)c2)o1 [Example 1, Ethyl 2-((3′-cyano-5-((1-((1R,3R)-3-((methoxycarbonyl)amino)cyclopentyl)-3-methyl-2-oxo-2,3-dihydro-1H-imidazo[4,5-c]pyridin-6-yl)amino)-[1,1′-biphenyl]-3-yl)amino)oxazole-5-carboxylate]	100 to 500	> 1000	> 1000	10 to 100
COC(=O)N[C@@H]1CC[C@@H](n2c(=O)n(C)c3cnc(Nc4cc(NC(=O)C5(F)CCOCC5)cc(-c5cccc(C#N)c5)c4)cc32)C1 [Example 2, Methyl ((1R,3R)-3-(6-((3′-cyano-5-(4-fluorotetrahydro-2H-pyran-4-carboxamido)-[1,1′-biphenyl]-3-yl)amino)-3-methyl-2-oxo-2,3-dihydro-1H-imidazo[4,5-c]pyridin-1-yl)cyclopentyl)carbamate]	≤ 10	> 1000	> 1000	≤ 10
[2H]C([2H])([2H])n1c(=O)n([C@@H]2CC[C@@H](NC(=O)OC)C2)c2cc(Nc3cc(C4CCOCC4)cc(-c4ncc(C(C)(C)O)s4)n3)ncc21 [Example 161, Methyl ((1R,3R)-3-(6-((6-(5-(2-hydroxypropan-2-yl)thiazol-2-yl)-4-(tetrahydro-2H-pyran-4-yl)pyridin-2-yl)amino)-3-(methyl-d3)-2-oxo-2,3-dihydro-1H-imidazo[4,5-c]pyridin-1-yl)cyclopentyl)carbamate]	≤ 10	–	> 1000	–
[2H]C([2H])([2H])n1c(=O)n([C@@H]2CC[C@@]([2H])(NC(=O)OC)C2)c2cc(Nc3cc(C4CCOCC4)cc(-c4ncc(C(C)(C)O)s4)n3)ncc21 [Example 162, Methyl ((1R,3R)-3-(6-((6-(5-(2-hydroxypropan-2-yl)thiazol-2-yl)-4-(tetrahydro-2H-pyran-4-yl)pyridin-2-yl)amino)-3-(methyl-d3)-2-oxo-2,3-dihydro-1H-imidazo[4,5-c]pyridin-1-yl)cyclopentyl-1-d)carbamate]	≤ 10	–	> 1000	–
[2H]C([2H])([2H])n1c(=O)n([C@@H]2CC[C@]([2H])(NC(=O)OC)C2)c2cc(Nc3cc(C4CCOCC4)cc(-c4ncc(C(C)(C)O)s4)n3)ncc21 [Example 163, Methyl ((1S,3R)-3-(6-((6-(5-(2-hydroxypropan-2-yl)thiazol-2-yl)-4-(tetrahydro-2H-pyran-4-yl)pyridin-2-yl)amino)-3-(methyl-d3)-2-oxo-2,3-dihydro-1H-imidazo[4,5-c]pyridin-1-yl)cyclopentyl-1-d)carbamate]	≤ 10	–	500 to 1000	–
[2H]C([2H])([2H])n1c(=O)n([C@@H]2CC[C@@]([2H])(NC(=O)OC)C2)c2cc(Nc3cc(-c4cnccc4C(F)(F)F)cc(-c4ncc(C(C)(C)O)s4)n3)ncc21 [Example 164, Methyl ((1R,3R)-3-(6-((6′-(5-(2-hydroxypropan-2-yl)thiazol-2-yl)-4-(trifluoromethyl)-[3,4′-bipyridin]-2′-yl)amino)-3-(methyl-d3)-2-oxo-2,3-dihydro-1H-imidazo[4,5-c]pyridin-1-yl)cyclopentyl-1-d)carbamate]	≤ 10	–	> 1000	–
[2H]C([2H])([2H])n1c(=O)n([C@@H]2CC[C@]([2H])(NC(=O)OC)C2)c2cc(Nc3cc(-c4cnccc4C(F)(F)F)cc(-c4ncc(C(C)(C)O)s4)n3)ncc21 [Example 165, Methyl ((1S,3R)-3-(6-((6′-(5-(2-hydroxypropan-2-yl)thiazol-2-yl)-4-(trifluoromethyl)-[3,4′-bipyridin]-2′-yl)amino)-3-(methyl-d3)-2-oxo-2,3-dihydro-1H-imidazo[4,5-c]pyridin-1-yl)cyclopentyl-1-d)carbamate]	≤ 10	–	> 1000	–
[2H]C([2H])([2H])n1c(=O)n([C@@H]2CC[C@@]([2H])(NC(=O)OC)C2)c2cc(Nc3cc(C4CCN(C)CC4)cc(-c4ncc(C(C)(C)O)s4)n3)ncc21 [Example 166, Methyl ((1R,3R)-3-(6-((6-(5-(2-hydroxypropan-2-yl)thiazol-2-yl)-4-(1-methylpiperidin-4-yl)pyridin-2-yl)amino)-3-(methyl-d3)-2-oxo-2,3-dihydro-1H-imidazo[4,5-c]pyridin-1-yl)cyclopentyl-1-d)carbamate]	≤ 10	–	> 1000	–
[2H]C([2H])([2H])n1c(=O)n([C@@H]2CC[C@@]([2H])(NC(=O)OC)C2)c2cc(Nc3cc(-c4cccnc4C(F)(F)F)cc(-c4ncc(C(C)(C)O)s4)n3)ncc21 [Example 167, Methyl ((1R,3R)-3-(6-((6′-(5-(2-hydroxypropan-2-yl)thiazol-2-yl)-2-(trifluoromethyl)-[3,4′-bipyridin]-2′-yl)amino)-3-(methyl-d3)-2-oxo-2,3-dihydro-1H-imidazo[4,5-c]pyridin-1-yl)cyclopentyl-1-d)carbamate]	≤ 10	–	> 1000	–
[2H]C([2H])([2H])n1c(=O)n([C@@H]2CC[C@](C)(NC(C)=O)C2)c2cc(Nc3cc(-c4cnccc4C(F)(F)F)c4nc(C)c(-c5cnn(C(F)F)c5)n4n3)ncc21 [Example 168, N-((1S,3R)-3-(6-((3-(1-(Difluoromethyl)-1H-pyrazol-4-yl)-2-methyl-8-(4-(trifluoromethyl)pyridin-3-yl)imidazo[1,2-b]pyridazin-6-yl)amino)-3-(methyl-d3)-2-oxo-2,3-dihydro-1H-imidazo[4,5-c]pyridin-1-yl)-1-methylcyclopentyl)acetamide]	≤ 10	–	> 1000	–
[2H]C([2H])([2H])n1c(=O)n([C@@H]2CC[C@@]([2H])(NC(=O)OC)C2)c2cc(Nc3cc(C(C)(C)O)c4nc(C)n(-c5cnn(C(F)F)c5)c4n3)ncc21 [Example 169, Methyl ((1R,3R)-3-(6-((3-(1-(difluoromethyl)-1H-pyrazol-4-yl)-7-(2-hydroxypropan-2-yl)-2-methyl-3H-imidazo[4,5-b]pyridin-5-yl)amino)-3-(methyl-d3)-2-oxo-2,3-dihydro-1H-imidazo[4,5-c]pyridin-1-yl)cyclopentyl-1-d)carbamate]	≤ 10	–	> 1000	–
